Where “and” joins values, the source holds several entries; their conditions need not be identical. Identical values can stand only once.
What was measured:
Trichophyton rubrum [1] = assay: Overall clinical evaluation by identified species; assay type: in vivo; details: Week 48
Experimental: (§1) A Phase II clinical pharmacology study was conducted in subjects with onychomycosis of the toenail. The study investigated the pharmacokinetics, efficacy and safety of three different dosing regimens of fosravuconazole. […] The three treatment groups were as follows: • a.

[2] = test system: Trichophyton mentagrophytes; assay: Overall clinical evaluation by identified species; assay type: in vivo; details: Week 48
Experimental: as §1

Trichophyton species = assay: Overall clinical evaluation by identified species; assay type: in vivo; details: 200 mg, Week 48
Experimental: as §1

Trichophyton rubrum [3] = assay: Identification of dermatophytes by PCR method: disappearance rate; assay type: in vivo; details: Week 48
Description: (§2) The efficacy endpoints were: (1) overall clinical efficacy; (2) changes over time in efficacy; (3) confirmation of elements of dermatophytes by direct microscopy; and (4) results of identification of dermatophytes by the polymerase chain reaction (PCR) method.

[4] = test system: onychomycosis of the toenail; assay: Phase II clinical study: changes over time in efficacy of the target nail (turbidity area ratio, clinical cure, relapse/reinfection); assay type: in vivo, human; details: for Clinical cure (no visual sign of infection) / Clinical cure rate and 95% CI / Remaining of the visual sign of infection: target nail; for Clinical cure (no visual sign of infection) / Clinical cure rate and 95% CI / Remaining of the visual sign of infection / turbidity area ratio regarding the target nail, Mean / turbidity area ratio regarding the target nail, Median: PPS
Experimental: as §1, §2

[5] = Safety: adverse events and laboratory tests; assay type: in vivo, human
Experimental: as §1
The safety endpoints were: (1) adverse events (AEs); (2) adverse reactions; and (3) laboratory tests.

Structure (SMILES): C[C@@H](c1nc(-c2ccc(C#N)cc2)cs1)[C@@](Cn1cncn1)(OCOP(=O)(O)O)c1ccc(F)cc1F [fosravuconazole, 4-[2-[(1R,2R)-2-(2,4-difluorophenyl)-1-methyl-2-[(phosphonooxy)methoxy]-3-(1H-1,2,4-triazol-1-yl)propyl]-4-thiazolyl]benzo-nitrile]
- Cure rate and 95% CI (Trichophyton rubrum [1]; 100 mg): 47.6 %
- Cured (Trichophyton rubrum [1]; 100 mg): 10
- Failed (Trichophyton rubrum [1]; 100 mg): 0
- Improved (Trichophyton rubrum [1]; 100 mg): 1
- Markedly improved (Trichophyton rubrum [1]; 100 mg): 10
- Slightly improved (Trichophyton rubrum [1]; 100 mg): 0
- Cure rate and 95% CI (Trichophyton rubrum [1]; 200 mg): 31.6 %
- Cured (Trichophyton rubrum [1]; 200 mg): 6
- Failed (Trichophyton rubrum [1]; 200 mg): 0
- Improved (Trichophyton rubrum [1]; 200 mg): 2
- Markedly improved (Trichophyton rubrum [1]; 200 mg): 11
- Slightly improved (Trichophyton rubrum [1]; 200 mg): 0
- Cure rate and 95% CI (Trichophyton rubrum [1]; 400 mg): 44.0 %
- Cured (Trichophyton rubrum [1]; 400 mg): 11
- Failed (Trichophyton rubrum [1]; 400 mg): 0
- Improved (Trichophyton rubrum [1]; 400 mg): 4
- Markedly improved (Trichophyton rubrum [1]; 400 mg): 10
- Slightly improved (Trichophyton rubrum [1]; 400 mg): 0
- Cure rate and 95% CI ([2]; 100 mg): 0.0 %
- Cured ([2]; 100 mg): 0
- Failed ([2]; 100 mg): 0
- Improved ([2]; 100 mg): 0
- Markedly improved ([2]; 100 mg): 4
- Slightly improved ([2]; 100 mg): 0
- Cure rate and 95% CI ([2]; 200 mg): 0.0 %
- Cured ([2]; 200 mg): 0
- Failed ([2]; 200 mg): 0
- Improved ([2]; 200 mg): 2
- Markedly improved ([2]; 200 mg): 0
- Slightly improved ([2]; 200 mg): 0
- Cure rate and 95% CI ([2]; 400 mg): 0.0 %
- Cured ([2]; 400 mg): 0
- Failed ([2]; 400 mg): 0
- Improved ([2]; 400 mg): 0
- Markedly improved ([2]; 400 mg): 2
- Slightly improved ([2]; 400 mg): 0
- Cure rate and 95% CI (Trichophyton species): 0.0 %
- Cured (Trichophyton species): 0
- Failed (Trichophyton species): 0
- Improved (Trichophyton species): 0
- Markedly improved (Trichophyton species): 1
- Slightly improved (Trichophyton species): 0
- Disappearance rate of Trichophyton rubrum (Trichophyton rubrum [3]; 100 mg (once daily dose) group): 57.1%
- Disappearance rate of Trichophyton rubrum (Trichophyton rubrum [3]; 200 mg (pulse treatment) group): 36.8%
- Disappearance rate of Trichophyton rubrum (Trichophyton rubrum [3]; 400 mg (pulse treatment) group): 52.1% and 52.0%
- relapse/reinfection ([4]; 100 mg (once daily dose) group): no subject
- Clinical cure (no visual sign of infection) ([4]; 100 mg group, Week 48): 11
- Clinical cure rate and 95% CI ([4]; 100 mg group, Week 48): 44.0 (24.5, 65.0) %
- Remaining of the visual sign of infection ([4]; 100 mg group, Week 48): 14
- turbidity area ratio regarding the target nail, Mean ([4]; 100 mg, Start day of treatment): 76.9%
- turbidity area ratio regarding the target nail, Median ([4]; 100 mg, Start day of treatment): 75.5%
- turbidity area ratio regarding the target nail, Mean ([4]; 100 mg, Week 4): 72.9%
- turbidity area ratio regarding the target nail, Median ([4]; 100 mg, Week 4): 72.0%
- turbidity area ratio regarding the target nail, Mean ([4]; 100 mg, Week 8): 65.9%
- turbidity area ratio regarding the target nail, Median ([4]; 100 mg, Week 8): 67.0%
- turbidity area ratio regarding the target nail, Mean ([4]; 100 mg, Week 12): 55.6%
- turbidity area ratio regarding the target nail, Median ([4]; 100 mg, Week 12): 56.0%
- turbidity area ratio regarding the target nail, Mean ([4]; 100 mg, Week 16): 44.2%
- turbidity area ratio regarding the target nail, Median ([4]; 100 mg, Week 16): 46.0%
- turbidity area ratio regarding the target nail, Mean ([4]; 100 mg, Week 20): 34.6%
- turbidity area ratio regarding the target nail, Median ([4]; 100 mg, Week 20): 36.0%
- turbidity area ratio regarding the target nail, Mean ([4]; 100 mg, Week 24): 26.5%
- turbidity area ratio regarding the target nail, Median ([4]; 100 mg, Week 24): 25.0%
- turbidity area ratio regarding the target nail, Mean ([4]; 100 mg, Week 28): 19.4%
- turbidity area ratio regarding the target nail, Median ([4]; 100 mg, Week 28): 18.0%
- turbidity area ratio regarding the target nail, Mean ([4]; 100 mg, Week 32): 14.4%
- turbidity area ratio regarding the target nail, Median ([4]; 100 mg, Week 32): 15.0%
- turbidity area ratio regarding the target nail, Mean ([4]; 100 mg, Week 36): 12.0%
- turbidity area ratio regarding the target nail, Median ([4]; 100 mg, Week 36): 9.0%
- turbidity area ratio regarding the target nail, Mean ([4]; 100 mg, Week 40): 9.6%
- turbidity area ratio regarding the target nail, Median ([4]; 100 mg, Week 40): 12.0%
- turbidity area ratio regarding the target nail, Mean ([4]; 100 mg, Week 44): 8.6%
- turbidity area ratio regarding the target nail, Median ([4]; 100 mg, Week 44): 8.0%
- turbidity area ratio regarding the target nail, Mean ([4]; 100 mg, Week 48): 9.3%
- turbidity area ratio regarding the target nail, Median ([4]; 100 mg, Week 48): 6.0%
- relapse/reinfection ([4]; 200 mg (pulse treatment) group): 4 subjects
- Clinical cure (no visual sign of infection) ([4]; 200 mg group, Week 48): 7
- Clinical cure rate and 95% CI ([4]; 200 mg group, Week 48): 31.8 (13.9, 54.8) %
- Remaining of the visual sign of infection ([4]; 200 mg group, Week 48): 15
- turbidity area ratio regarding the target nail, Mean ([4]; 200 mg, Start day of treatment): 76.4%
- turbidity area ratio regarding the target nail, Median ([4]; 200 mg, Start day of treatment): 74.0%
- turbidity area ratio regarding the target nail, Mean ([4]; 200 mg, Week 4): 69.6%
- turbidity area ratio regarding the target nail, Median ([4]; 200 mg, Week 4): 70.0%
- turbidity area ratio regarding the target nail, Mean ([4]; 200 mg, Week 8): 59.8%
- turbidity area ratio regarding the target nail, Median ([4]; 200 mg, Week 8): 58.5%
- turbidity area ratio regarding the target nail, Mean ([4]; 200 mg, Week 12): 51.4%
- turbidity area ratio regarding the target nail, Median ([4]; 200 mg, Week 12): 49.0%
- turbidity area ratio regarding the target nail, Mean ([4]; 200 mg, Week 16): 45.0%
- turbidity area ratio regarding the target nail, Median ([4]; 200 mg, Week 16): 45.0%
- turbidity area ratio regarding the target nail, Mean ([4]; 200 mg, Week 20): 35.8%
- turbidity area ratio regarding the target nail, Median ([4]; 200 mg, Week 20): 34.0%
- turbidity area ratio regarding the target nail, Mean ([4]; 200 mg, Week 24): 27.9%
- turbidity area ratio regarding the target nail, Median ([4]; 200 mg, Week 24): 25.0%
- turbidity area ratio regarding the target nail, Mean ([4]; 200 mg, Week 28): 23.3%
- turbidity area ratio regarding the target nail, Median ([4]; 200 mg, Week 28): 18.0%
- turbidity area ratio regarding the target nail, Mean ([4]; 200 mg, Week 32): 20.0%
- turbidity area ratio regarding the target nail, Median ([4]; 200 mg, Week 32): 9.0%
- turbidity area ratio regarding the target nail, Mean ([4]; 200 mg, Week 36): 18.2%
- turbidity area ratio regarding the target nail, Median ([4]; 200 mg, Week 36): 11.5%
- turbidity area ratio regarding the target nail, Mean ([4]; 200 mg, Week 40): 16.0%
- turbidity area ratio regarding the target nail, Median ([4]; 200 mg, Week 40): 10.0%
- turbidity area ratio regarding the target nail, Mean ([4]; 200 mg, Week 44): 13.5%
- turbidity area ratio regarding the target nail, Median ([4]; 200 mg, Week 44): 5.0%
- turbidity area ratio regarding the target nail, Mean ([4]; 200 mg, Week 48): 14.6%
- turbidity area ratio regarding the target nail, Median ([4]; 200 mg, Week 48): 9.0%
- Clinical cure (no visual sign of infection) ([4]; 300 mg group, Week 48): 11
- Clinical cure rate and 95% CI ([4]; 300 mg group, Week 48): 40.7 (22.4, 61.2) %
- Remaining of the visual sign of infection ([4]; 300 mg group, Week 48): 16
- relapse/reinfection ([4]; 400 mg group): 1 subject
- turbidity area ratio regarding the target nail, Mean ([4]; 400 mg, Start day of treatment): 74.4%
- turbidity area ratio regarding the target nail, Median ([4]; 400 mg, Start day of treatment): 76.0%
- turbidity area ratio regarding the target nail, Mean ([4]; 400 mg, Week 4): 66.9%
- turbidity area ratio regarding the target nail, Median ([4]; 400 mg, Week 4): 67.0%
- turbidity area ratio regarding the target nail, Mean ([4]; 400 mg, Week 8): 57.4%
- turbidity area ratio regarding the target nail, Median ([4]; 400 mg, Week 8): 59.0%
- turbidity area ratio regarding the target nail, Mean ([4]; 400 mg, Week 12): 49.3%
- turbidity area ratio regarding the target nail, Median ([4]; 400 mg, Week 12): 52.0%
- turbidity area ratio regarding the target nail, Mean ([4]; 400 mg, Week 16): 40.6%
- turbidity area ratio regarding the target nail, Median ([4]; 400 mg, Week 16): 41.0%
- turbidity area ratio regarding the target nail, Mean ([4]; 400 mg, Week 20): 31.1%
- turbidity area ratio regarding the target nail, Median ([4]; 400 mg, Week 20): 29.0%
- turbidity area ratio regarding the target nail, Mean ([4]; 400 mg, Week 24): 25.7%
- turbidity area ratio regarding the target nail, Median ([4]; 400 mg, Week 24): 20.0%
- turbidity area ratio regarding the target nail, Mean ([4]; 400 mg, Week 28): 18.3%
- turbidity area ratio regarding the target nail, Median ([4]; 400 mg, Week 28): 16.0%
- turbidity area ratio regarding the target nail, Mean ([4]; 400 mg, Week 32): 14.9%
- turbidity area ratio regarding the target nail, Median ([4]; 400 mg, Week 32): 12.0%
- turbidity area ratio regarding the target nail, Mean ([4]; 400 mg, Week 36): 13.5%
- turbidity area ratio regarding the target nail, Median ([4]; 400 mg, Week 36): 9.0%
- turbidity area ratio regarding the target nail, Mean ([4]; 400 mg, Week 40): 11.8%
- turbidity area ratio regarding the target nail, Median ([4]; 400 mg, Week 40): 6.0%
- turbidity area ratio regarding the target nail, Mean ([4]; 400 mg, Week 44): 11.9%
- turbidity area ratio regarding the target nail, Median ([4]; 400 mg, Week 44): 6.0%
- turbidity area ratio regarding the target nail, Mean ([4]; 400 mg, Week 48): 12.7%
- turbidity area ratio regarding the target nail, Median ([4]; 400 mg, Week 48): 8.0%
- AEs resulting in discontinuation of the study treatment ([5]; 100 mg (once daily dose) group): 1 subject
- AST or ALT elevated to Grade 2 after the start of study treatment ([5]; 100 mg (once daily dose) group): 2 subjects
- Moderate AEs ([5]; 100 mg (once daily dose) group): 3 subjects
- incidence of AEs ([5]; 100 mg (once daily dose) group): 89.7%
- new AE derived from fungal infection ([5]; 100 mg (once daily dose) group): no new AE derived from fungal infection
- AST or ALT elevated to Grade 2 after the start of study treatment ([5]; 200 mg (pulse treatment) group): 1 subject
- Moderate AEs ([5]; 200 mg (pulse treatment) group): 12 subjects
- incidence of AEs ([5]; 200 mg (pulse treatment) group): 64.5%
- AEs resulting in discontinuation of the study treatment ([5]; 400 mg (pulse treatment) group): 4 subjects
- AST or ALT elevated to Grade 2 after the start of study treatment ([5]; 400 mg (pulse treatment) group): 1 subject
- Moderate AEs ([5]; 400 mg (pulse treatment) group): 12 subjects
- incidence of AEs ([5]; 400 mg (pulse treatment) group): 85.3%
- tinea pedis ([5]; 400 mg (pulse treatment) group): 2 subjects
- tolerability ([5]; all dosing groups): well-tolerated
- death or other serious AEs ([5]; any of the treatment groups): No death or other serious AEs occurred
- AST or ALT elevated to Grade 2 after the start of study treatment ([5]; in total, all groups): 4 subjects
